Data on 4 compounds can be found in PMC9037111, “Structure-based design, synthesis, and biological evaluation of novel piperine–resveratrol hybrids as antiproliferative agents targeting SIRT-2” (RSC Advances, 2021).

Where two headings read alike, the source gives them in different places.

Holding throughout (assay): cells
Design in all cases: species or system NCI-60 human tumour cell lines; NCI-60 one-dose screen at 10 uM, percent growth inhibition versus untreated control cells

The subject of one assay is MCF7. Particulars: Homo sapiens, MCF7, growth inhibition, one dose. On the procedure: (§1) The antiproliferative activity of the target compounds 5a–h was screened against a panel of 60 cancer cell lines according to NCI-guidelines at concentration of 10 μM. The results for each compound (Table 1) were recorded as the percent of growth inhibition of treated cells compared to untreated control cells. […] In addition, 5b recorded significant activity against leukemia cancer cell lines K-562 and MOLT-4, Non-small cell lung cancer cell lines NCI-H322M and NCI-H460, Colon cancer cell lines COLO 205, HCT-15 and HCT-116, CNS cancer cell lines SF-295 and SF-539, Melanoma cancer cell lines LOX IMVI and UACC-62, Ovarian cancer cell lines NCI/ADR-RES, OVCAR-3, and OVCAR-4, Renal cancer cell lines CAKI-1, ACHN, and UO-31, and Breast cancer MCF7 cell line with growth inhibition percentage between 80 to 95. […] The methodology of the NCI anticancer screening has been described in detail elsewhere (https://dtp.cancer.gov/).[52]

For another assay, the system named is SN12C. The settings on record: Homo sapiens, SN12C, growth inhibition, one dose. On the procedure:
as §1

The next assay relates to IGROV1. Particulars: Homo sapiens, IGROV-1, growth inhibition, one dose. On the procedure: as §1
The subject of another assay is LOX IMVI. The settings on record: Homo sapiens, LOX IMVI, growth inhibition, one dose. On the procedure:
as §1

The next assay has as its system OVCAR-8. Particulars: Homo sapiens, OVCAR-8, growth inhibition, one dose. On the procedure: as §1
For the next assay, the system named is 786-0. The settings on record: Homo sapiens, 786-0, growth inhibition, one dose. On the procedure:
as §1

In the next assay the test system is SK-MEL-2. Particulars: Homo sapiens, SK-MEL-2, growth inhibition, one dose. On the procedure: as §1
The subject of another assay is SNB-19. Particulars: Homo sapiens, SNB-19, growth inhibition, one dose. On the procedure: as §1
The subject of a further assay is U251. The settings on record: Homo sapiens, U-251, growth inhibition, one dose. On the procedure: as §1
The next assay has as its system CCRF-CEM. Particulars: Homo sapiens, CCRF-CEM, growth inhibition, one dose. On the procedure: as §1
The subject of another assay is HCT-15. The settings on record: Homo sapiens, HCT-15, growth inhibition, one dose. On the procedure: as §1
A further assay deals with OVCAR-3. The settings on record: Homo sapiens, OVCAR-3, growth inhibition, one dose. On the procedure: as §1
The test system of a further assay is PC-3. The settings on record: Homo sapiens, PC-3, growth inhibition, one dose. On the procedure: as §1
Another assay relates to SK-MEL-28. The settings on record: Homo sapiens, SK-MEL-28, growth inhibition, one dose. On the procedure: as §1
For another assay, the system named is HS 578 T. The settings on record: Homo sapiens, Hs-578T, growth inhibition, one dose. On the procedure: as §1
The test system of another assay is ACHN. The settings on record: Homo sapiens, ACHN, growth inhibition, one dose. On the procedure: as §1
For another assay, the system named is NCI-H226. Particulars: Homo sapiens, NCI-H226, growth inhibition, one dose. On the procedure: as §1
The next assay has as its system NCI-H522. The settings on record: Homo sapiens, NCI-H522, growth inhibition, one dose. On the procedure: as §1
The mark [1] stands for this setting: read-out: Growth% inhibition / 5h.
Where [2] appears, read: read-out: Growth% inhibition / 5e.
The mark [3] stands for this setting: read-out: Growth% inhibition / 5a.
The mark [4] stands for this setting: read-out: Growth% inhibition / 5d.

For the compound `C/C(=N\NC(=O)/C=C/C=C/c1ccc2c(c1)OCO2)c1ccc(Br)cc1` [5h, (2E,4E)-5-(Benzo[d][1,3]dioxol-5-yl)-N′-((E)-1-(4-bromophenyl)ethylidene)penta-2,4-dienehydrazide], the inhibition at 10 µM came to 38.7% in the assay with MCF7 (setting [1]); 12.4% in the assay with SN12C (setting [1]); 29.7% in the assay with IGROV1 (setting [1]); 38.3% with LOX IMVI (setting [1]); 24.7% in the assay with OVCAR-8 (setting [1]); 14.6% in the assay on 786-0 (setting [1]). In addition, the inhibition at 10 µM with SK-MEL-2 (setting [1]) amounted to 11%; with SNB-19 (setting [1]), 14.5%; in the assay with U251 (setting [1]), 16%; with CCRF-CEM (setting [1]) it was 44.3%; in the assay on HCT-15 (setting [1]), 36.3%; in the assay on OVCAR-3 (setting [1]) it was 24.4%. The inhibition at 10 µM was found to be 30.9% with PC-3 (setting [1]); 14.2% in the assay with SK-MEL-28 (setting [1]); 86.5% in the assay on HS 578 T (setting [1]); 24.1% in the assay on ACHN (setting [1]); 24.1% with NCI-H226 (setting [1]); 19.9% in the assay with NCI-H522 (setting [1]).
Turning to `CCN(CC)c1ccc(/C=N/NC(=O)/C=C/C=C/c2ccc3c(c2)OCO3)c(O)c1` [5e, (2E,4E)-5-(Benzo[d][1,3]dioxol-5-yl)-N′-((E)-4-(diethylamino)-2-hydroxybenzylidene)penta-2,4-dienehydrazide], the inhibition at 10 µM in the assay with MCF7 (setting [2]) turned out to be 80.5%; with SN12C (setting [2]) it was 45.9%; in the assay with IGROV1 (setting [2]), 61.8%; with LOX IMVI (setting [2]), 81.8%; with OVCAR-8 (setting [2]), 67.1%; in the assay on 786-0 (setting [2]), 52.8%. The inhibition at 10 µM worked out at 34.3% with SK-MEL-2 (setting [2]); 39% with SNB-19 (setting [2]); 56.8% with U251 (setting [2]); 78.3% in the assay with CCRF-CEM (setting [2]); 78.7% with HCT-15 (setting [2]); 95.1% in the assay with OVCAR-3 (setting [2]). Moreover, the inhibition at 10 µM was determined as 59.1% in the assay with PC-3 (setting [2]); 48% with SK-MEL-28 (setting [2]); 31.9% in the assay with HS 578 T (setting [2]); 74.4% with ACHN (setting [2]); 50.5% with NCI-H226 (setting [2]); 87.5% in the assay with NCI-H522 (setting [2]).
As for `O=C(/C=C/C=C/c1ccc2c(c1)OCO2)NN=Cc1ccc(O)cc1` [5a, (2E,4E)-5-(Benzo[d][1,3]dioxol-5-yl)-N′-((E,Z)-4-hydroxybenzylidene)penta-2,4-dienehydrazide], the inhibition at 10 µM with MCF7 (setting [3]) was 28.8%; in the assay with IGROV1 (setting [3]), 24.7%; in the assay with LOX IMVI (setting [3]), 38.5%; in the assay with CCRF-CEM (setting [3]), 32.4%; in the assay on HCT-15 (setting [3]), 39.7%; with PC-3 (setting [3]), 19.8%. Further, the inhibition at 10 µM in the assay with NCI-H522 (setting [3]) was 22.8%.
For the compound `CN(C)c1ccc(C=NNC(=O)/C=C/C=C/c2ccc3c(c2)OCO3)cc1` (mixture of isomers) [5d, (2E,4E)-5-(Benzo[d][1,3]dioxol-5-yl)-N′-((E/Z)-4-(dimethylamino)-benzylidene)penta-2,4-dienehydrazide], the inhibition at 10 µM with MCF7 (setting [4]) came to 43.6%; in the assay on IGROV1 (setting [4]) it was 10.1%; in the assay with LOX IMVI (setting [4]), 11.1%; in the assay with CCRF-CEM (setting [4]) it was 20.5%; with HCT-15 (setting [4]), 24.2%; with PC-3 (setting [4]), 15%. Besides, in the assay on NCI-H522 (setting [4]), the inhibition at 10 µM worked out at 11.7%.
